Test results taken from ChEMBL document CHEMBL5727873, “Heterocyclic compounds and uses thereof” (2020).
pIC50: −log10 of the molar value.

Molecular target: T1, Histone deacetylase 8 (Homo sapiens, UniProt Q9BY41)
T1 sequence (Q9BY41 whole entry): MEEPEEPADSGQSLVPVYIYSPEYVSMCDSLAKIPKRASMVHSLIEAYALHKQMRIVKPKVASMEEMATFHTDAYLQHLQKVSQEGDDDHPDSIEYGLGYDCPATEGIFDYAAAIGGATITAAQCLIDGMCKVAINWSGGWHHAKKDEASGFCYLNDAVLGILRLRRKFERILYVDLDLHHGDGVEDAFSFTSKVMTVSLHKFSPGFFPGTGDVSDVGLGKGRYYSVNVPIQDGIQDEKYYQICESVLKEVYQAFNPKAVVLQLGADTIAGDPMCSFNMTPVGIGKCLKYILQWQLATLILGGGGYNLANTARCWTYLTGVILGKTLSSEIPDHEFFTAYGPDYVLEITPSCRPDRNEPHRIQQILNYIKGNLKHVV
Test: Enzymatic Assay: HDAC-Glo I/II Assay Kit was purchased from Promega Corporation (Madison, Wis.), including the following components: HDAC-Glo I/II Buffer (25 mM Tris buffer, pH 8.0, supplemented with 137 mM: NaCl, 2.7 mM KCl, 1% v/v Triton X-100 and 1 mM: MgCl2), luminogenic substrates Boc-GAK(Ac)-aminoluciferin (HDAC-Glo I/II substrate), proprietary developer reagent (containing trypsin). Assay:The HDAC8 reaction was performed at room temperature in white 384-well polystyrene, flat-bottom microtiter plate (Greiner Bio-one, Monroe, N.C.) in a final volume of 20 μL. Test compounds were first diluted serially in DMSO and 100 nL were transferred to the plate wells by Echo 550 (Labcyte, Sunnyvale, Calif.) before the addition of other reaction components. The final concentration of DMSO in the assay was 0.5%. The HDAC-Glo I/II assay reagent was prepared by rehydration of lyophilized HDAC-Glo I/II substrate in 10 mL. HDAC-Glo I/II assay buffer followed with the addition of 10 μL of developer reagent. 10 uL of 3 nM HDAC8 in the HDAC-Glo I/II assay buffer were first dispensed into the microliter plate containing the compounds and incubated at room temperature for 30 min. The reactions were initiated with the addition of 10 uL HDAC-Glo I/II assay reagent with Multidrop.

Row | SMILES | pIC50
1 | CC1CCN(c2cccc3nn(C(Cc4ccccc4)C(=O)NO)cc23)CC1 (configuration not stated) | < 6.30
2 | Cn1nc(C(Cc2ccccc2)C(=O)NO)c2ccc(Cl)cc21 (configuration not stated) | > 7.30
